Measured values: patent publication US20250215030A1, “STAT MODULATORS AND USES THEREOF” (Recludix Pharma, Inc., priority 2022, published 2025)

Legend:
pSTAT3 (pY705-STAT3) = target: T1, pSTAT3 (pY705-STAT3) (Homo sapiens, UniProt P40763); assay: MSD-pSTAT-PBMC Assay (pSTAT3, IL-6 stimulated); assay type: cell-based; settings: PBMC, compound 3 hrs, then 10 ng/mL IL-6 for 10 min; MSD pY705-STAT3; read-out: pSTAT3
T1 construct: host or cells: cryopreserved PBMC
Outline: (§1)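 Human PBMCs (50,000 cells/well for STAT3, 25,000 for STAT6) treated with compound 3 h, then stimulated 10 min with 10 ng/mL IL-6 or 1 ng/mL IL-4. Lysate pSTAT3 (pY705) or pSTAT6 (pY641) measured by MSD sandwich electrochemiluminescence. Signal minus unstimulated, normalized to DMSO; IC50 by variable-slope nonlinear regression.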

pSTAT6 (pY641-STAT6) = target: T2, pSTAT6 (pY641-STAT6) (Homo sapiens, UniProt P42226); assay: MSD-pSTAT-PBMC Assay (pSTAT6, IL-4 stimulated); assay type: cell-based; settings: compound 3 hrs, then 1 ng/mL IL-4 for 10 min
T2 construct: host or cells: cryopreserved PBMC
T2 sequence (P42226 1-847): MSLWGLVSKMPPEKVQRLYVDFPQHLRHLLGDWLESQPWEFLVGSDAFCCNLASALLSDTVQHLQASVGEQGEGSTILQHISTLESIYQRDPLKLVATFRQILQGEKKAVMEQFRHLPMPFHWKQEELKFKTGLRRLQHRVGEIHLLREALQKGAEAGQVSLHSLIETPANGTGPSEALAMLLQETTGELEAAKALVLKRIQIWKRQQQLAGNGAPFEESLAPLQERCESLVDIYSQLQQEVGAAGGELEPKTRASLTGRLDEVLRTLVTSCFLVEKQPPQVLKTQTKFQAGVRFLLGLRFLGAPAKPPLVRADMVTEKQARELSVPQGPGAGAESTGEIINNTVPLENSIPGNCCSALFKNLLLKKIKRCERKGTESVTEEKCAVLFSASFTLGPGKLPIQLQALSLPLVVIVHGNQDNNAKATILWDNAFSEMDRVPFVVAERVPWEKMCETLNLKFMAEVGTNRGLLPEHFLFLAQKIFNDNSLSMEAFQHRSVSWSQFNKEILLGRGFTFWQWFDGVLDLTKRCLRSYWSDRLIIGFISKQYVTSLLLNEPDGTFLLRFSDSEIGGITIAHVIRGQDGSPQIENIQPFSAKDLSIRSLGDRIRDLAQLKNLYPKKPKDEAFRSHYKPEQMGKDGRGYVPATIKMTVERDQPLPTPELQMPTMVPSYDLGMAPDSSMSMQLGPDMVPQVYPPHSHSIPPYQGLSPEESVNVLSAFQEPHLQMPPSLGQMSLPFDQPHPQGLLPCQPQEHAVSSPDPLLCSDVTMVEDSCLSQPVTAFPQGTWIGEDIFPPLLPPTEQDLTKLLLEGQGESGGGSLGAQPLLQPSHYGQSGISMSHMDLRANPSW
Outline: as §1

T1 sequence (P40763 whole entry): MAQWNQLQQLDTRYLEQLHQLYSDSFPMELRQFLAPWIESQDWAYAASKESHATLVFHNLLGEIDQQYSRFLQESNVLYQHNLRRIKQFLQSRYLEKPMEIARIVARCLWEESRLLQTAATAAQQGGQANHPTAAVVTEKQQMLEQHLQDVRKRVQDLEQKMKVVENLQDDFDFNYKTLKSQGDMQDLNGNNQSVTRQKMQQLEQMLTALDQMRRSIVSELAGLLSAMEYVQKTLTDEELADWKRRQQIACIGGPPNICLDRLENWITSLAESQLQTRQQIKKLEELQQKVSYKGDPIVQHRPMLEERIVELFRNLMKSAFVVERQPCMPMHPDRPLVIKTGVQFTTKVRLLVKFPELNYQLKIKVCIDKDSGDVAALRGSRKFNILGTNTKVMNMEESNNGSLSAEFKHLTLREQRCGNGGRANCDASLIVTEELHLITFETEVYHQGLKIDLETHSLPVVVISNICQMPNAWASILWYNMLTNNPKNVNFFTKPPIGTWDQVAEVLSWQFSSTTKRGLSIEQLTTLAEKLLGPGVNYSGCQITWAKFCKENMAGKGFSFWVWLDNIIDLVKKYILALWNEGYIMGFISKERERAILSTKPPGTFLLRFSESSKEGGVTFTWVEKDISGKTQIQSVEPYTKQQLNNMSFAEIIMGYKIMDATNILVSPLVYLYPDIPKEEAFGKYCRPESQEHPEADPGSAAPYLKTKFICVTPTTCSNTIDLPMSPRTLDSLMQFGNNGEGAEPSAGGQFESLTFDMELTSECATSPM

SMILES | IC50 (pSTAT3 (pY705-STAT3)) | IC50 (pSTAT6 (pY641-STAT6))
CC(C)CC(=O)SCCOP(=O)(OCCSC(=O)CC(C)C)C(F)(F)c1ccc2sc(C(=O)N[C@H]3C[C@H]4C[C@H]4C[C@H]4CC[C@@H](C(=O)N5CC(c6ncccn6)C5)N4C3=O)cc2c1 [Compound 225, S,S′-((((difluoro(2-(((3S,6S,7aR, 8aS,9aR)-5-oxo-3-(3-(pyrimidin-2-yl)azetidine-1-carbonyl)decahydro-1H-cyclopropa[d]pyrrolo[1,2-a]azocin-6-yl)carbamoyl)benzo[b]thiophen-5-yl)methyl)phosphoryl)bis(oxy))bis(ethane-2,1-diyl)) bis(3-methylbutane thioate)] | < 100 nM | 1000 to 3000 nM
CC(C)(C)C(=O)SCCOP(=O)(OCCSC(=O)C(C)(C)C)C(F)(F)c1ccc2sc(C(=O)N[C@H]3C[C@@H]4C[C@@H]4C[C@H]4CC[C@@H](C(=O)N5CC(F)(c6ccccc6)C5)N4C3=O)cc2c1 [Compound 228, S,S′-((((difluoro(2-(((3S,6S,7aS, 8aR,9aR)-3-(3-fluoro-3-phenylazetidine-1-carbonyl)-5-oxodecahydro-1H-cyclopropa[d]pyrrolo[1,2-a]azocin-6-yl)carbamoyl)benzo[b]thiophen-5-yl)methyl)phosphoryl)bis(oxy))bis(ethane-2,1-diyl)) bis(2,2-dimethyl-propanethioate)] | 100 to 1000 nM | > 3000 nM
CC(C)OC(=O)CNP(=O)(Oc1ccccc1)C(F)(F)c1ccc2sc(C(=O)N[C@H]3C[C@@H]4C[C@@H]4C[C@H]4CC[C@@H](C(=O)N5CC(C(=O)N6CCOCC6)C5)N4C3=O)cc2c1 (stereo partly drawn) [Example 2, isopropyl ((difluoro(2-(((3S,6S,7aS,8aR,9aR)-3-(3-(morpholine-4-carbonyl)azetidine-1-carbonyl)-5-oxodecahydro-1H-cyclopropa[d]pyrrolo[1,2-a]azocin-6-yl)carbamoyl)benzo[b]thiophen-5-yl)methyl)(phenoxy)phosphoryl)glycinate] | > 3000 nM | > 3000 nM
CCCCC(=O)OCOP(=O)(OCOC(=O)CCCC)C(F)(F)c1ccc2sc(C(=O)N[C@H]3C[C@@H]4C[C@@H]4C[C@H]4CC[C@@H](C(=O)N5CC(C(=O)N6CCOCC6)C5)N4C3=O)cc2c1 [Example 4, (((difluoro(2-(((3S,6S,7aS,8aR,9aR)-3-(3-(morpholine-4-carbonyl)azetidine-1-carbonyl)-5-oxodecahydro-1H-cyclopropa[d]pyrrolo[1,2-a]azocin-6-yl)carbamoyl)benzo[b]thiophen-5-yl)methyl)phosphoryl)bis(oxy))bis(methylene) dipentanoate] | < 100 nM | > 3000 nM
